| Compound | melting point |
| --- | --- |
| CC(C)(C)OC(=O)NC1COCCCC=CC2CC2(C(=O)NS(=O)(=O)C2CC2)NC(=O)C2CC(OC(=O)N3CCc4ccccc43)CN2C1=O (stereo not drawn) | 128 to 130 °C |
| CCCc1cn(C)cc(-c2cccc(C(F)(F)F)c2)c1=S | 145 to 148 °C |
| COCCn1cc(C=O)c(-c2ccc([N+](=O)[O-])o2)n1 | 137 to 138 °C |
| N#Cc1ccc(N(Cc2ccc(OS(N)(=O)=O)c(Cl)c2)n2cnnc2)cc1-c1cc2ccccc2o1 | 214 to 215 °C |
| CCc1c(-c2ccc(OC)cc2)cn2ccc(OC)cc12 | 101 to 103 °C |
| NC(=O)C(OCc1ccc(-c2ccc(Cl)cc2)cc1)(C(F)(F)F)C(F)(F)F | 123 to 124 °C |
| CC(C)(C)c1ccc(CN2CCC3(CC2)CC(=O)c2ccccc2O3)cc1 | 149 to 151 °C |
| c1ccc(-c2nn3c(c2-c2nc4ncccc4[nH]2)CCC3)nc1 | 170 to 172 °C |
| O=C(c1c(F)cccc1F)N1COCN(c2ccc(SC(F)(F)C(F)(F)F)cc2F)C1=O | 47 to 50 °C |
| C=C1CCN(c2ccc(Cl)cc2)C1=O | 119 to 120 °C |
| COc1cn(-c2ccc(-n3nccc3OC(F)F)cc2F)nc(-c2ccnn2-c2ccccc2)c1=O | 177 to 179 °C |
| CC(C)(C)OC(=O)N1CCN(CCc2ccc(Nc3ncc4c(n3)-c3ccccc3C(c3ccccc3C(F)(F)F)C4)cc2)CC1 (stereo not drawn) | 234 to 235 °C |
| C=CC(C)(C)C1=C(O)C(=O)c2ccccc2C1=O | 60 °C |
| CNc1nc(-c2ccccc2)c(-c2nc3ccccc3c(=O)n2-c2ccc(C)cc2)s1 | 192 to 193 °C |
| C(C#CSCc1ccccc1)#CSCc1ccccc1 | 38 to 39 °C |
| Cc1c2cccccc-2c(-c2ccccc2)c1-c1ccc(S(C)(=O)=O)cc1 | 165 to 167 °C |
| Cc1c(Cl)c(=O)n(-c2cc(C(=O)OC(C)C)c(Cl)cc2F)c(=O)n1C | 150 to 153 °C |
| O=c1c(Cl)c(OCc2ccc(F)cc2F)ccn1Cc1ccc2[nH]ccc2c1 | 152 to 153 °C |
| NCc1ccc(CN2CCN(c3ccccc3)CC2)cc1 | 68 to 70 °C |
| COc1cc(C=O)ccc1OCCN1c2ccccc2Sc2ccccc21 | 130 °C |
| O=C1CC2CCc3ccc(F)cc3C2=NN1c1ccc(OCC2CO2)cc1 (stereo not drawn) | 128 to 130 °C |
| Cc1cc(C)c2nc(C)c(NC(=O)Nc3cccc(C(F)(F)F)c3)c(-c3ccccc3Cl)c2c1 | 146 to 147 °C |
| O=S(=O)(c1ccc(F)cc1)C(c1cc(F)ccc1F)c1cc(NCCO)ncc1Cl (stereo not drawn) | 157 to 158 °C |
| Cc1cc2c(s1)SCC1CC(=O)N(c3ccc(Cl)cc3)N=C21 (stereo not drawn) | 142 to 144 °C |
| CC(=O)C=Cc1ccc2c(c1)Cc1ccccc1-2 | 146 to 148 °C |
| Nc1nc(-c2ccc(F)cc2)cn1N | 227 to 230 °C |
| COc1ccc(-c2nc3cc(Cl)c(Cl)cc3n2C(=O)OCc2ccccc2)cc1NS(=O)(=O)c1cccs1 | 195 to 198 °C |

| Compound | melting point |
| --- | --- |
| COc1ccc(N2C(=O)N(c3cccc(C#N)c3)c3nc(Nc4cccc(CCO)c4)ncc3C2C)cc1 (stereo not drawn) | 195 to 200 °C |
| O=Cc1ccc2c3cccc4cccc(c5cccc1c52)c43 | 230 °C |
| Cc1ccccc1N1CCN(Cc2c[nH]c3ncccc23)CC1 | 174 to 176 °C |
| COCc1ccc(C#Cc2ccc3c(c2)C(C)(C)CCC3(C)C)cc1 | 93 to 94 °C |
| O=C(O)c1ccccc1CN1C(=O)C2(COc3cc4c(cc32)OCO4)c2ccccc21 (stereo not drawn) | > 250 °C |
| COC(=O)CCC(=O)N1CCc2cc(S(=O)(=O)N3CCN(c4ccc(F)cc4)CC3)ccc21 | 213 to 215 °C |
| CN1C(=O)CN=C(c2ccccc2F)c2cc(CCN)ccc21 | 125 °C |
| COc1cc2c(cn1)OCC21C(=O)Nc2ccccc21 (stereo not drawn) | 231 to 232 °C |
| Nc1nc(=O)n(-c2ccsc2)cc1F | 228 to 229 °C |
| CC(C)(C)NC(=O)c1ccccc1C(c1ccc(O)cc1)c1ccc(O)cc1 | 264 to 266 °C |
| Fc1ccc(OC2CCN(CCc3c[nH]c4ccccc34)CC2)cc1 | 109 to 111 °C |
| O=C(Cl)c1ccccc1SSc1ccccc1C(=O)Cl | 145 to 148 °C |
| CC(C)(C)c1cc(SC#N)cc(C(C)(C)C)c1O | 61.5 to 63 °C |
| COc1ccc(C#Cc2ccc(C(=O)O)s2)cc1C12CC3CC(CC(C3)C1)C2 | 244 to 245 °C |
| CN(c1cnc(-c2ccccc2)c(-c2ccccc2)n1)C1CCc2c(OCC(=O)O)cccc21 (stereo not drawn) | 182 to 184 °C |
| CCCCCCCCCCCCCCCCCCNc1nc(N)nc(N)n1 | 91 °C |
| Cc1nncn1-c1ccc(Cl)cc1C(=O)c1ccccc1Cl | 148 °C |
| COc1ccc(OCc2ccccc2)c2c1OCCO2 | 70 °C |
| CN1CC(C)(CCCl)Oc2ncccc2C1=S (stereo not drawn) | 119 to 121 °C |
| CCCCCCCCCCCCCCCCCCCCC1Cc2cc(C(=O)O)ccc2N1 (racemic) | 110 to 115 °C |
| CC1(Cc2ccc3c(c2)OCCO3)CN(C(c2ccccc2)c2ccccc2)CCN1 (stereo not drawn) | 144 °C |
| N#CC1=C(Cl)CN(COC(=O)CNC(=O)CNC(=O)c2ccccc2)C1(c1ccc(Cl)cc1)C(F)(F)F (stereo not drawn) | 65 to 67 °C |
| NC(CCCCNC(=O)OCc1ccccc1)C(=O)N(Cc1ccccc1)Cc1ccccc1 (stereo not drawn) | 135 to 136 °C |
| CCc1nc2c(C)cc(C)nc2n1Cc1ccc(-c2ccccc2S(=O)(=O)Nc2onc(C)c2C)c(CN2CCC(C)(C)C2=O)c1 | 95 to 104 °C |
| CCOC(=O)c1c(N2CCN(C(=O)c3cccs3)CC2)c2cccnc2n(Cc2ccc(F)cc2)c1=O | 196 °C |
| O=c1[nH]cc(-c2ccncc2)cc1[N+](=O)[O-] | 258 to 260 °C |
| NC1=c2c3c(ccc2=CCS1)CCCN3 | 214 to 216 °C |

Next, values leading:

| melting point | Compound |
| --- | --- |
| 136 to 138 °C | CC(=O)N1CCC(c2nn(-c3ccccc3)c3cc(Br)ccc23)CC1 |
| 147 °C | CNC(=O)c1cccc(NC(=O)C2(c3ccccc3)CCCC2)c1 |
| 211 to 212 °C | O=C(Nc1ccccc1)c1cccc(-c2ccnc3c(C(=O)c4cccs4)cnn23)c1 |
| 179 to 181 °C | CCOC(=O)C(=O)CC(=O)c1cn(Cc2ccc(O)cc2)c2ccccc2c1=O |
| 139 to 141 °C | CCCCN(CCCC)C(=S)Nc1ccc(NNC=O)cc1 |
| 146 to 147 °C | COc1cc(C(=O)N2CCN(C(=O)OC(C)(C)C)C(C(=O)N(C)C)C2)cc(OC)c1OC (stereo not drawn) |
| 139 to 140 °C | CC(=O)c1ccc(-c2ccc(Cl)cc2)c(N)c1 |
| 107 to 108 °C | CCCn1c2cc(Cl)ccc2c(=O)c2cccn21 |
| 202 °C | Cc1ccccc1C(=O)Nc1ccc(C(=O)N2CCCC(N(C)C)c3ccccc32)cc1O (stereo not drawn) |
| 58 to 70 °C | CSCC(=O)[C@H](COCc1ccccc1)NC(=O)[C@H](CC(C)C)NC(=O)OCc1ccccc1 |
| 223 to 226 °C | Oc1nc(S)n(-c2ccccc2)n1 |
| 184 to 185 °C | CS(=O)c1ccc(-n2cnc3ccc(-c4nnc(CC(F)(F)F)o4)cc32)cc1 (stereo not drawn) |
| 111 to 112 °C | C=CCCCCC1CCC(CC)(CC(=O)O)c2[nH]c3c(C)cccc3c21 (stereo not drawn) |
| 199 to 201 °C | CCCNC(=O)c1cnc2c(c1O)CN(C(=O)OCC)CC2 |
| 141 to 142 °C | COc1ccc(-c2sc3cnccc3c2OC(C)=O)cc1 |
| 147 to 150 °C | CCOC(=O)C=C(C)NC(=O)Nc1cc(C(=O)OC(C)C)c(Cl)cc1F |
| 140 to 141 °C | COc1cc(NC(=O)N(O)C(C)C)cc(OC)c1OC |
| 127 to 129 °C | Cc1nc2sccn2c(=O)c1Br |
| 188 to 190 °C | COC(=O)c1ccc(OCC2CN(c3ccc(NC(C)=O)cc3)C(=O)O2)cc1 (stereo not drawn) |
| 285 to 290 °C | CC(=O)Nc1ccc(-c2nc3n(c2-c2ccc(NC(C)=O)cc2)CCS3)cc1 |
| 235 to 238 °C | O=C(NCc1ccc(Cl)cc1)c1cnc2cccc(O)c2c1O |
| 96 to 98 °C | CCCCOC(=O)c1cnc(C(=O)O)c(OC)c1 |

| melting point | Compound |
| --- | --- |
| 224 to 226 °C | OCc1nnc2ccc(-c3cccc(C(F)(F)F)c3)nn12 |
| 96 to 98 °C | COC(=O)c1cc(C(=O)c2cc(C(=O)OC)c(OC)c([N+](=O)[O-])c2)cc([N+](=O)[O-])c1OC |
| 235 to 238 °C | Cc1cc(Nc2ccccc2C(=O)O)n(Cc2ccncc2)n1 |
| 152 to 153 °C | CCOC(=O)c1cn(Cc2ccc(OCc3nc(-c4ccccc4)oc3C)cc2)nc1O |
| 91 to 92.5 °C | CC(C)(O)C(=O)Nc1ccc(Sc2ccccc2)cc1F |
| 160 to 161 °C | COC(=O)c1nc2c(c(-c3ccccc3)nn2-c2ccccc2)c(N)c1C(=S)OC |
| 178 to 185 °C | CC(=O)Nc1nnnn1CC(I)=C(I)I |
| 175 to 176 °C | CCNCC(=O)N1c2ccccc2NC(=O)c2c1c(C)cn2C |
| 161 to 163 °C | CC(C)[C@H](N)C(=O)OCc1nc2c(N)nc3ccccc3c2n1CCCCNS(C)(=O)=O |
| 143 to 146 °C | CCOC(=O)c1c(Cl)nn(-c2c(Cl)cc(C(F)(F)F)cc2Cl)c1N |
| 240 to 242 °C | Cn1c([N+](=O)[O-])cnc1-c1nnc2ccc(N3CCOCC3)nn12 |
| 124 to 126 °C | CCn1cc(C(c2ccc(Cl)cc2Cl)n2cncn2)c2cc(Br)ccc21 (stereo not drawn) |
| 149 to 151 °C | COc1ccc(C(=O)c2ccc3c(c2)CC(C(=O)O)C3)cc1 (stereo not drawn) |
| 62 to 64 °C | COC(=O)CNC(=O)NCCCCC1CCSS1 (stereo not drawn) |
| 185 to 186 °C | Oc1ccc2c(ccn2Cc2ccncc2)c1 |
| 251 °C | Cc1cc(C=NNC(=O)c2ccc(O)cc2)oc1C |
| 158 to 161 °C | CCCCC1NC(/C=C(\Cc2cccs2)C(=O)O)=CN1Cc1ccc(C(=O)O)c(-c2ccccc2)c1 (stereo not drawn) |
| 93 °C | COC(=O)CCCc1cc2cc(Cl)ccc2n1S(=O)(=O)c1ccc(F)c([N+](=O)[O-])c1 |
| 71 to 72 °C | CC(C)(C)OC(=O)C1CCN(Sc2ccncc2)CC1 |
| 126 to 127 °C | CC(C)Oc1ccc(-c2nc(O)c(C(=O)O)s2)cc1 |
| 197 to 198 °C | Cc1ccc(NS(=O)(=O)c2ccccc2)c(C(=O)O)c1 |
| 107 °C | CS(=O)(=O)N1CCN([C@@H](CNS(=O)(=O)c2ccc(OCc3noc4ccccc34)cc2)C(=O)NO)CC1 |

Reference: a melting point compilation (Tetko et al.; mined from patent text by program, amines drawn as free bases though some values may be those of a salt)
